In series [1] the test system is mammary and intestinal tumors. In words: Apparent therapeutic responses in Apc Min/+ mammary and intestinal tumor mice. It is filed as in vivo, Apc^Min/+ mouse. From the text: During the course of mouse tumor uptake and retention studies with “imaging” doses (15-20 μCi/20 g mouse) of ^125I-labeled NM404, several apparent therapeutic responses have been observed (unpublished results). […] Some of these animals also lost all hair above larger mammary tumors at around 8 days after injection. Moreover, these mice also get intestinal tumors and usually suffer from intestinal bleeding resulting in severe anemia, which renders their feet white. Dr. Moser noted that the feet of these mice had reverted to a pink color around 5 days after a single injection of NM404. […] Another compelling example of tumor regression is illustrated in FIG. 6. Two litter mates each received SCC1 and SCC6 xenografts in their left and right flanks, respectively. One mouse received a single injection of ^125I-NM404 (20 μCi). […] These coincidental findings were reconfirmed in two separate age-matched groups each involving more than 6 mice. Although these observations with ^125I-NM404 are anecdotal at this point, they do seem to strongly indicate potential for radiotherapy applications particularly if labeled with iodine-131. Ongoing quantitative tumor uptake and retention studies in several animal tumor models will also provide sufficient data to initiate a comprehensive dosimetry analysis for this agent in order to estimate its true radiotherapeutic potential.

In series [2] the test system is human PC-3 tumor cells in tibia. The series can be described thus: Intratibial PC-3 bone tumor model, radioactivity scan fused with microCT. It is filed as in vivo, NUDE mice. As to conditions: 4 days following injection. The procedure:
Following in vivo imaging of anesthetized mice, the prostate tumors were removed immediately, and imaged ex vivo on the same scanner (equipped with high resolution 1 mm collimator and 2-D acquisition and analysis software) in order to avoid tissue attenuation associated with the low energy of iodine-125 (FIG. 21). […] In an attempt to simulate bone metastases another experiment was performed wherein human PC-3 tumor cells were implanted into the tibia of immune compromised NUDE mice (n=6) according to a recent reports. Following tumor cell inoculation, mice were scanned serially by high-resolution microCT in order to monitor bone tumor development (FIG. 22). Once bone deterioration was detected, iodine-125 labeled NM404 was administered intravenously via tail vein. Mice were scanned for radioactivity and by microCT 4 days post NM404 administration. Radioactivity scans were fused with microCT scans (FIG. 23) to corroborate NM404 radioactivity and tumor location.

Series [3] deals with Mammary Adenocarcinoma. In words: Tumor models examined with NM404 (Table 2). The format is in vivo, Apc/^min+ mouse. The text has this:
(§1) NM404 has now been evaluated in 27 animal tumor models, including several lung, and it is clear that once the agent enters tumor cells, it reaches a metabolic dead end and becomes trapped. […] NM404 is also retained in spontaneous murine lung tumors (FIG. 13). Using ^125I-labeled NM404, the inventors have been able to image mammary and prostate tumors in mice in excess of 60 days. […] Imaging and tissue distribution studies performed in mouse models aimed at determining the uptake characteristics in a wide variety of tumor models are summarized in Table 2.
(§2) Although tumor retention can be explained by a lack of metabolic phospholipase enzymes in the tumor cell membranes, the exact mechanism of tumor cell uptake is unknown. […] The inventors are currently evaluating the selectivity of NM404 in a unique mouse tumor model developed at Wisconsin, wherein both preneoplastic hyperplasias and malignant adenocarcinomas form spontaneously in the mammary gland. […] If this initial observation is validated, then via genomic and or proteomic analysis the inventors may be able to identify a key genetic difference between malignant tumors and their non malignant predecessor cells. This could identify a completely new molecular therapeutic target that may be universal for all types of cancer.

The test system of series [4] is Mammary SCC. The series can be described thus: Tumor models examined with NM404 (Table 2). The format is in vivo, Apc/^min+ mouse. The following applies: Squamous cell carcinoma.
Excerpt: as §1, §2

Series [5] is described as follows: Acute GLP toxicology, single iv dose, 14 days observation, rats. The format is in vivo. As to conditions: female rats.
Series [6] deals with phospholipase D (PLD). In words: Phospholipase D (PLD) assay. The format is biochemical, cabbage. The following applies: in the presence of ethanol. As for the experimental part: Finally, several PLE analogs were subjected to a phospholipase D (PLD) assay. The PLD, which was isolated from cabbage, is similar to mammalian PLD in that the cabbage form affords phosphatidylethanol-type products in addition to phosphatidic acid when the enzymatic reaction is performed in the presence of ethanol. Several of the PLE analogs subjected to these assay conditions did give rise to the phosphatidylethanol adduct, indicating possible interaction with PLD. The inventors believes that NM404 is a metabolic substrate to human Phospholipase D, and that the relative absence of Phospholipase D in cancer cell membranes is the underlying mechanism for tumor-selective retention of NM404. Although known from the literature (reference[…]), it is still unclear why cancers lack PLD in their membranes.
As conclusion, the mechanism of selective retention of NM404 may be due to a decrease in the membrane levels of PLD, thus precluding metabolism and clearance of NM404 from the cell. […] This supports the finding of the in vitro cell culture uptake and retention study wherein it was shown that PLE analogs were sequestered by and subsequently metabolized by normal cells (which contained normal levels of PLD). […]

Series [7] relates to MAT LyLu cells. The series can be described thus: Gamma camera scintigraphy in rat Dunning R3327 (MAT LyLu) prostate cancer model.
Excerpt: The MatLyLu (Dunning R3327 rat) model, a rat prostate tumor line, was used specifically to screen 9 specific analogs prior to entering them into control for dosimetry and tumor-bearing animals for determining tumor/background ratios.
In order to expedite the screening process and minimize the number of tumor bearing animals utilized in multiple time point tissue distribution studies, new radioiodinated homologs were imaged by gamma camera scintigraphy in the rat Dunning R3337 (MAT LyLu strain) prostate cancer model. […] Gamma camera images were obtained at multiple time points including 24 and 48 hours post injection.
The new PLE analogs were synthesized and radiolabeled with ^125I for initial image analysis in Copenhagen rats bearing Dunning R3327 prostate tumors.
The test system of series [8] is lymph node metastases. The series can be described thus: Scintigraphy in metastatic prostate tumor model. As to conditions: in vivo. From the text:
A variety of tumors including mammary, prostate, squamous cell carcinoma, ovarian, colorectal, and melanoma were successfully visualized by scintigraphy with NM324.
This agent has also been evaluated preclinically in a metastatic prostate tumor model in which lymph node metastases were clearly delineated by scintigraphy following intravenous administration of NM404 but, pertinently, the tracer was not retained by uninvolved lymph nodes. Selectivity of NM404 for malignant cells is particularly relevant in prostate cancer as conventional tumor markers such as PSA may also be elevated in a variety of benign disease states including prostatitis and benign prostatic hypertrophy. Furthermore, selective uptake and prolonged retention by tumor cells supports a role for NM404 as a tumor-selective diagnostic and therapeutic agent.

The nature of series [9]: Human safety study of unlabeled NM404 in normal volunteers. It is filed as in vivo. As for the experimental part: Formal toxicology studies of NM404 in male rats and rabbits were performed at the Toxicology Research Center of the State University of New York at Buffalo under the direction of Dr. Paul Kostyniak. Drug vehicle and drug product were provided to Dr. Kostyniak by Dr. Raymond Counsell of the University of Michigan for testing as described in the appended synopses of Study 27 and Study 28. […] Human safety studies of unlabeled NM404 were initiated in normal male humans at a mass of 10 times the anticipated imaging dose and about 21 times the anticipated therapy dose. […] This toxicology study was performed under GLP conditions.
Safety assessment in normal male subjects healthy normal female subjects were carried out and it was determined that a dose level of 3 μg/kg of C-NM-404 is safe to administer to male subjects. […] A dose level of 3 μg/kg of C-NM-404 is safe to administer to female subjects.

Take `C[N+](C)(C)CCOP(=O)([O-])OCCCCCCCCCCCCCCCCCCc1ccc([125I])cc1` [Compound I-125-NM404]: the “survival versus untreated litter mates” value in [1] (after 21 days, both intestinal models) is “easily outlived their untreated litter mates”. Besides, in [1] (single injection), the “intestinal tumors remaining at dissection” value is “only a very few, if any”. Moreover, the mammary tumor growth result in [1] (single iv injection, 15-20 μCi/20 g mouse) is listed as “tumor growth remains static”. The “correlation of radioactivity with tibial tumor” value in series [2] is listed as “Focal NM404 activity correlates well with tibial PC3 tumor”.

Regarding `C[N+](C)(C)CCOP(=O)([O-])OCCCCCCCCCCCCCCCCCCc1ccc(I)cc1` [NM-404, 18-(4-iodophenyl)-octadecylphosphocholine], the “NM404 Tumor Localization” value in series [3] and in series [4] was “Yes (Localization defined as >5% injected dose per gram tumor basis based on tissue distribution data)” each time. Besides, the adverse effects entry in [5] is on record as “no adverse effects attributable to the test article were noted”. Besides, in series [5] (0.04 mg/kg (Study 31)), the toxic effects entry is given as “no significant toxic effects were noted”. In addition, in series [6], the “substrate for PLD” value is given as “a good substrate for this enzyme”. Besides, the “liver activity and tumor retention in initial image screen” value in series [7] (125I-labeled) is “much lower liver activity than its predecessor NM324 but also maintained prolonged tumor retention”. Moreover, in series [7] (tumor-bearing rats, 24 and 48 hours post injection), the “tumor uptake and liver/abdominal radioactivity by gamma camera imaging” value was “readily visualized”. The “localization in lymph node metastases” value in series [8] is on record as “clearly delineated by scintigraphy in a metastatic prostate tumor model without retention in uninvolved lymph nodes”. The “dose level safe to administer” value in series [9] (female subjects) and in series [9] (male subjects) was 3 µg/kg throughout. Moreover, in series [9] (normal male humans, 10 times the anticipated imaging dose), the toxicity result was “no toxicity attributable to the drug substance”.

Values taken from US9579406B2, “Phospholipid ether analogs as agents for detecting and locating cancer, and methods thereof” (Cellectar, Inc., priority 2004, dated 2017).
